The text below walks through data of patent US20130144250A1, “IMPLANTABLE DRUG DELIVERY COMPOSITIONS AND METHODS OF TREATMENT THEREOF” (Endo Pharmaceuticals Solutions Inc., priority 2011, published 2013).

Converted amounts (≈) assume the structure as drawn. Where a name gives a salt, the structure may show the parent alone. Read-outs that look alike come from different tables or passages of the source.

For data set [1] the following is noted: cited from earlier work.
Data set [2] in a line: In vitro elution of the API from implants in an elution bath of 0.9% saline at 37° C., exchanges analyzed by HPLC. Format: physicochemical. On the procedure: The testing method set forth in the examples to determine the elution rates for the respective actives included placing the implants in an elution bath consisting of 50 mL 0.9% saline at 37° C. Weekly exchanges of the elution media were analyzed by HPLC for the durations given.
A drug implant was manufactured as described in Example 1 using an aliphatic, polyether-based polyurethane (TECOFLEX® EG-93A polyurethane) as the tubing material. […] Nine pellets of the anastrozole blend were then placed inside the tubing. A total of about 370 mg anastrozole per implant was used. The implants were sterilized by gamma irradiation and placed in an elution bath of 0.9% saline (50 mL) at 37° C. Regular exchanges of the elution media were analyzed by HPLC for over 400 days.
Implants D and E were then tested for in vitro elution, as described in Example 2.
The implants were sterilized by gamma irradiation and placed in an elution bath of 0.9% saline (200 mL) at 37° C.
Drug containing pellets were manufactured as described in Example 1, and the polymeric sorption enhancer croscarmellose sodium was added to the drug blend. Nine pellets of a drug blend with various concentrations of anastrozole and croscarmellose, with the remainder being 2% stearic acid as lubricant, were placed into a polyurethane tubing (TECOFLEX® EG-93A). The implants were sterilized by gamma irradiation and placed in an elution batch consisting of 50 mL saline at 37° C. Weekly exchanges of the elution media were analyzed by HPLC for 13 weeks.
Drug containing pellets were manufactured as described in Example 1, and the polymeric sorption enhancer croscarmellose sodium was added to the drug blend. […] The implants were sterilized by gamma irradiation and placed in an elution batch consisting of 500 mL saline at 37° C. Weekly exchanges of the elution media were analyzed by HPLC for 11 weeks.
A total of about 250 mg fingolimod were loaded into the implants with 10% croscarmellose and 2% stearic acid. The implants were sterilized by gamma irradiation and placed in an elution batch consisting of 800 mL 0.9% saline at 37° C. Weekly exchanges of the elution media were analyzed by HPLC for up to 30 weeks.
The drug implants were manufactured as described in Example 26 using TECOFLEX® EG-80A, TECOFLEX® EG-85A, TECOFLEX® EG-93A, TECOFLEX® EG-100A, TECOFLEX® EG-65D, or TECOFLEX® EG-68D polyurethanes as the tubing materials and varenicline tartrate as the API. […] A total of about 350 mg varenicline tartrate were loaded into each implant with 10% croscarmellose and 2% stearic acid. The implants were sterilized by gamma irradiation and placed in an elution batch consisting of 200 mL 0.9% saline at 37° C. Weekly exchanges of the elution media were analyzed by HPLC for up to 11 weeks.
The drug implant was manufactured as described in Example 26 using TECOFLEX® EG-93A polyurethane as the tubing material and varenicline free base as the API. […] A total of about is 250 mg varenicline free base were loaded into the implant with 10% croscarmellose and 2% stearic acid. The implant was sterilized by gamma irradiation and placed in an elution batch consisting of 100 mL 0.9% saline at 37° C.

For data set [3] the following is noted: human, in vivo, po.
For data set [4], the system named is estrogen formation. The conditions noted are these: indirect effect model with sigmoidal inhibitory drug effect.
Data set [5] relates to estrogen formation. The data set can be described thus: animal or person. The conditions noted are these: Homo sapiens, read-out: EC50 (concentration achieving half-maximal response).

With `O=C1CCc2ccc(OCCCCN3CCN(c4cccc(Cl)c4Cl)CC3)cc2N1` [Aripiprazole, aripiprazole], the Bioavailability in data set [1] (oral dosage) was 85%.
As for `CCN(CC)CC#CCOC(=O)C(O)(c1ccccc1)C1CCCCC1` (stereo not drawn) [Oxybutynin HCl, oxybutynin hydrochloride], the “release rates from implants” value in data set [2] (TECOFLEX EG-80A and EG-85A implants, oxybutynin HCl) is “suitable release rates”. Besides, the elution from implants entry in data set [2] (TECOFLEX EG-93A, TECOPHILIC HP-60D-05 and HP-60D-10 implants, oxybutynin HCl) is “failed to elute”.
`Cc1nc2n(c(=O)c1CCN1CCC(c3noc4cc(F)ccc34)CC1)CCCC2` [Risperidone, 4-[2-[4-(6-fluorobenzo[d]isoxazol-3-yl)-1-piperidyl]ethyl]-3-methyl-2,6-diazabicyclo[4.4.0]deca-1,3-dien-5-one]: in data set [3], the “time of peak active moiety plasma concentration following administration” value was no more than 3 h. Moreover, the elution rate entry is on record as “about 1,450 μg/day” in data set [2] (TECOFLEX EG-80A implant, 2% croscarmellose, 500 mL saline, week 2); “about 850 μg/day” in data set [2] (TECOFLEX EG-80A implant, 2% croscarmellose, 500 mL saline, week 11); “about 1,800 μg/day” in data set [2] (TECOFLEX EG-80A implant, 12% croscarmellose, 500 mL saline, week 2); “about 1,400 μg/day” in data set [2] (TECOFLEX EG-80A implant, 12% croscarmellose, 500 mL saline, week 11). Moreover, the “daily elution rates with a sorption enhancer in comparison to an implant without” value in data set [2] (TECOFLEX EG-80A, 10% croscarmellose vs none, 200 mL saline) is recorded as “significantly higher”. Also, the “drug release compared to no added sorption enhancer” value is “increased the drug release” in data set [2] (TECOFLEX EG-80A, 10% polyethylene oxide, sodium polyacrylate or chondroitin sulfate); “increased the drug release” in data set [2] (TECOFLEX EG-80A, 10% sodium carboxymethyl cellulose); “increased the drug release” in data set [2] (TECOFLEX EG-80A, even the smallest percentage of croscarmellose sodium).
With `N#Cc1ccc(C(c2ccc(C#N)cc2)n2cncn2)cc1` [Letrozole, letrozole], the Bioavailability in data set [1] (oral dosage) is listed as 99%.
Consider `Nc1nc2ncc(CNc3ccc(C(=O)N[C@@H](CCC(=O)O)C(=O)O)cc3)nc2c(=O)[nH]1` [Folic acid, folic acid], for which the Bioavailability in data set [1] (oral dosage) is listed as 60%.
With `C[C@]12C=CC(=O)N[C@@H]1CC[C@@H]1[C@@H]2CC[C@]2(C)[C@@H](C(=O)Nc3cc(C(F)(F)F)ccc3C(F)(F)F)CC[C@@H]12` [Dutasteride, dutasteride], in data set [1] (oral dosage), the Bioavailability is on record as roughly 60%.
Consider `CCN(CC)CC#CCOC(=O)C(O)(c1ccccc1)C1CCCCC1` (stereo not drawn) [oxybutynin free base, oxybutynin], for which the Bioavailability in data set [1] (oral dosage) is on record as roughly 6%. In addition, the elution from implants result in data set [2] (TECOFLEX EG-80A and EG-85A implants, oxybutynin free base) is reported as “essentially streamed out”. Also, the “release rates from implants” value in data set [2] (TECOFLEX EG-93A, TECOPHILIC HP-60D-05 and HP-60D-10 implants, oxybutynin free base) is “suitable and controllable release rates”.
For the molecule `CC(C)(C#N)c1cc(Cn2cncn2)cc(C(C)(C)C#N)c1` [Anastrozole, anastrozole], in data set [1] (oral dosage), the Bioavailability is 80-85%. Also, the “duration of pseudo-zero order elution rate” value in data set [2] (FIG. 4, aliphatic polyether-based urethane implant (Example 2)) was “over 400 days”; in data set [2] (FIG. 13, 10% sorption enhancer (croscarmellose)), “over 80 days”; in data set [2] (FIG. 14, 10% sodium carboxymethyl starch) it was “over 80 days”; in data set [2] (FIG. 14, 10% sodium starch glycolate) it was “over 80 days”. For the same molecule, the “duration of pseudo-zero order elution” value in data set [2] (FIG. 8, polyether-based polyurethane excipient) is “over one year”. In addition, the “elution profile, 9 pellets versus 7 pellets” value in data set [2] (FIG. 10) is “higher elution profile”. Moreover, in data set [2] (TECOFLEX EG-93A), the “drug release rate on increasing sodium polyacrylate from 10% to 14% of the drug blend” value was “increased the drug release rate”. Besides, the elution rate result in data set [2] (TECOFLEX EG-93A implant, 2% croscarmellose, 50 mL saline) was “about 250 μg/day”; in data set [2] (TECOFLEX EG-93A implant, 10% croscarmellose, 50 mL saline), “about 850 μg/day”. Further, the “release with increased load into the implant” value in data set [2] (TECOFLEX EG-93A, about 125 mg to about 540 mg per implant, over 70 days) is given as “linear release”. Also, the “drug release compared to no added sorption enhancer” value in data set [2] (TECOFLEX EG-93A, even the smallest percentage of croscarmellose sodium) is given as “increased the drug release”; in data set [2] (TECOFLEX EG-93A, sodium polyacrylate), “increased the drug release”. Also, the “Hill coefficient of the concentration response curve on estrogen” value in the data set on estrogen formation [4] was determined as 0.455. In addition, the EC50 in the data set with estrogen formation [5] amounted to 0.000565 ng/mL (≈ 0.00193 nM).
Regarding `CCN(C)C(=O)Oc1cccc([C@H](C)N(C)C)c1` [Rivastigmine Tartrate, rivastigmine tartrate], the Bioavailability in data set [1] (oral dosage) is on record as 35%.
Take `Cc1ccc(O)c([C@H](CCN(C(C)C)C(C)C)c2ccccc2)c1` [Tolterodine Tartrate, tolterodine tartrate]: the Bioavailability in data set [1] (oral dosage) is on record as roughly 75%.
`CCCN(CCc1cccs1)[C@H]1CCc2c(O)cccc2C1` [Rotigotine, rotigotine]: the Bioavailability in data set [1] (transdermal) is reported as 35%.
Turning to `c1cnc2cc3c(cc2n1)[C@@H]1CNC[C@H]3C1` [varenicline free base, varenicline], the release rate entry in data set [2] (TECOFLEX EG-93A implant, 100 mL saline) is listed as “about 1,750 μg/day”. Also, the “elution rates in vitro in comparison to the salt form” value in data set [2] (free base vs HCl or tartrate salt) was “higher and more stable”.
Regarding `Cc1nc2n(c(=O)c1CCN1CCC(c3noc4cc(F)ccc34)CC1)CCCC2O` (stereo not drawn) [Paliperidone, paliperidone], in data set [1] (oral dosage), the Bioavailability was 28%.
As to `C#CCN(C)[C@H](C)Cc1ccccc1` [Selegiline HCl, selegiline HCl], the Bioavailability in data set [1] (buccal 1.25 mg/day) is on record as 90%.
In the case of varenicline tartrate, the “drug release from implants” value is recorded as “released but without any control over the release” in data set [2] (TECOFLEX EG-80A and EG-85A implants, after a long incubation phase); “no drug was released” in data set [2] (TECOFLEX EG-93A, EG-100A, EG-65D and EG-68D implants, 200 mL saline).
